Assay [1] deals with T1, pyruvate carboxylase (PYC) (Sus scrofa, UniProt A0A8W4F6F0).
T1 construct: a porcine liver proteome was run over an ATP-Sepharose™ column; from tissue; host or cells: porcine liver
T1 sequence (A0A8W4F6F0 1-1157): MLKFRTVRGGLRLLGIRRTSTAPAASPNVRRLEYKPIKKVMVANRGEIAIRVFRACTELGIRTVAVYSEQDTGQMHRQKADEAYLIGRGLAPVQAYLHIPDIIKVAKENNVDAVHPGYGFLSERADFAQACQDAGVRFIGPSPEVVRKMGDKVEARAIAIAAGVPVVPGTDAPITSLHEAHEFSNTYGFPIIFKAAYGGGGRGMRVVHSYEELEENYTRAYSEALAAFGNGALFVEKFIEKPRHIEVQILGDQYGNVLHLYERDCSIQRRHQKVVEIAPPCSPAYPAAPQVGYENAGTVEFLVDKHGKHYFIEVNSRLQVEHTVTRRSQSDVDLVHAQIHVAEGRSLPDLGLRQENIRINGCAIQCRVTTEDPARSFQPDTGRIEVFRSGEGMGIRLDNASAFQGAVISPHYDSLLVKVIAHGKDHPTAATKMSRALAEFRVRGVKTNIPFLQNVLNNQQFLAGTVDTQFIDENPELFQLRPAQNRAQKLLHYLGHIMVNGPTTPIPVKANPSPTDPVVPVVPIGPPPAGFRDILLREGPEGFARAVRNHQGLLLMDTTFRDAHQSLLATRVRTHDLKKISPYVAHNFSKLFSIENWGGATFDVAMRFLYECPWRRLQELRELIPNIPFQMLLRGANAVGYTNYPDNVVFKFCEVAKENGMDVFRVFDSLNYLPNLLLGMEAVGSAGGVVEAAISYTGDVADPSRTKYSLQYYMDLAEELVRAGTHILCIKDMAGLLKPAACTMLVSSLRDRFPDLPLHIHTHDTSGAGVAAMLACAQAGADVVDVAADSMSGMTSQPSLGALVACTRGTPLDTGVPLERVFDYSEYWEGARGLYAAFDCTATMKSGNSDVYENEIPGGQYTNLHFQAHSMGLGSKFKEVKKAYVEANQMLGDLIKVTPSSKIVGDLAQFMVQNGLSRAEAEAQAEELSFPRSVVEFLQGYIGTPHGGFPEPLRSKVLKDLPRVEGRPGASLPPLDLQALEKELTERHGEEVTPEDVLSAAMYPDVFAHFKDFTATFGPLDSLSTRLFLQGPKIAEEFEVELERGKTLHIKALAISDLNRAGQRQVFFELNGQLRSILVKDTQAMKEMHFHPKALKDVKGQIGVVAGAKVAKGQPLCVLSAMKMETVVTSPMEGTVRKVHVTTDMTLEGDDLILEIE
In words: Elution of PYC from ATP-Sepharose column loaded with porcine liver proteome, IC50 estimate. The class given is binding. As to conditions: estimated from percent of protein eluted from ATP-Sepharose column, read-out: Approximate IC50 for PYC. How it is done: Similar experiments were carried out to compare the IC50 values for PYC, PCCA, and PCCB. In these trials, a porcine liver proteome was run over an ATP-Sepharose™ column to bind all purine-binding proteins. The ATP-Sepharose™ column was washed several times, and then eluted with the compound of Formula III at concentrations of 1 μM, 5 μM, 10 μM, 50 μM, 100 μM, and 500 μM to identify proteins that bound to this compound. (The amount of protein eluted at the higher concentration ranges plateaued, thus confirming that the entire fraction of bound protein had been eluted.) The eluted fractions were run on a 1-dimensional SDS polyacrylamide gel.
(§1) Gels were stained with a fluorescent stain such as sypro ruby (a highly sensitive fluorescent protein stain that can readily detect less than 1 fmol of total protein, i.e., less than 0.04 ng for a 40 kDa protein). The gels were imaged using a standard flat bed gel imager and the amount of protein estimated by densiometry. The percent of protein eluted from the column at each concentration was determined and IC50 values were calculated from these estimates. Where necessary, the eluted proteins were cut out of the gel, and identified using mass spectral techniques.
These steps were repeated with each of the compounds of Formulas IV-X, MTX, and the c series derivative. The values obtained were then compared to those for DHFR.

For assay [2], the target named is T2, propionyl-CoA carboxylase subunit alpha (PCCA) (Sus scrofa, UniProt P0DTA4).
T2 construct: a porcine liver proteome was run over an ATP-Sepharose™ column; from tissue; host or cells: porcine liver
T2 sequence (P0DTA4 53-730): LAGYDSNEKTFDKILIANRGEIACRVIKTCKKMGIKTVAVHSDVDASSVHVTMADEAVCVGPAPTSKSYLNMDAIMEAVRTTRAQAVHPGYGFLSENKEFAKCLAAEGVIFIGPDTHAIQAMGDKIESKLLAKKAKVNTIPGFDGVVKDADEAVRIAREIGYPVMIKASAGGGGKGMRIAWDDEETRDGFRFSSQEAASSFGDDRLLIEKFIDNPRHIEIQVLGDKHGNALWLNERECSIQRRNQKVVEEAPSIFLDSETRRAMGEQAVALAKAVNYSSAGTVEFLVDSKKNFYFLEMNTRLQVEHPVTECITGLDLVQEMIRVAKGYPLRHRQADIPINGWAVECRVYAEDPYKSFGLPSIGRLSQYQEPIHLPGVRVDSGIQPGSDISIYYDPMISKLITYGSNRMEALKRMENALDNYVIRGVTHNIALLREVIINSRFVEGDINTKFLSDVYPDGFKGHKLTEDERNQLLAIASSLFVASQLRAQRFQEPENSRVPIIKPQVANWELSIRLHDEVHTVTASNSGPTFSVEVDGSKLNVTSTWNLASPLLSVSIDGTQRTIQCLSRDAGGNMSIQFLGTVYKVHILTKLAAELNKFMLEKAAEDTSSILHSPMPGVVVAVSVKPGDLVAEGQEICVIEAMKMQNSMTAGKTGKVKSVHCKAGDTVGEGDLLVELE
T2 sequence (P79384 29-539 partner): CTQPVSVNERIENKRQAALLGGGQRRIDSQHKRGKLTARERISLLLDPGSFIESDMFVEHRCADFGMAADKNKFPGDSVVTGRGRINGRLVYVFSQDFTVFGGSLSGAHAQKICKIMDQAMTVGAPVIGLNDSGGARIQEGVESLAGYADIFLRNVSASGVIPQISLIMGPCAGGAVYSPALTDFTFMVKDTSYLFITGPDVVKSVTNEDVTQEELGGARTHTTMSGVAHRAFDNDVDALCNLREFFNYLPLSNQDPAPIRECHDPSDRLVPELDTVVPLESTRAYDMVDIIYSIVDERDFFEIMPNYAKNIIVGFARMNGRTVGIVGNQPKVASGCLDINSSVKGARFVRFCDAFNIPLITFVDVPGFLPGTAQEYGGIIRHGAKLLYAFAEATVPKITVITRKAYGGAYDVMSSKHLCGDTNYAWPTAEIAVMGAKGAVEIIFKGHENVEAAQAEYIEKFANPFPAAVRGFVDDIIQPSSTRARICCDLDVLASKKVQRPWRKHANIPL
In words: Elution of PCCA from ATP-Sepharose column loaded with porcine liver proteome, IC50 estimate. The class given is binding. As to conditions: estimated from percent of protein eluted from ATP-Sepharose column, read-out: Approximate IC50 for PCCA. How it is done: (§2) Similar experiments were carried out to compare the IC50 values for PYC, PCCA, and PCCB. In these trials, a porcine liver proteome was run over an ATP-Sepharose™ column to bind all purine-binding proteins. The ATP-Sepharose™ column was washed several times, and then eluted with the compound of Formula III at concentrations of 1 μM, 5 μM, 10 μM, 50 μM, 100 μM, and 500 μM to identify proteins that bound to this compound.
as §1
(§3) The values obtained were then compared to those for DHFR.

Assay [3] deals with T3, propionyl-CoA carboxylase subunit beta (PCCB) (Sus scrofa, UniProt P79384).
T3 construct: a porcine liver proteome was run over an ATP-Sepharose™ column; from tissue; host or cells: porcine liver
T3 sequence (P79384 29-539): T2 sequence (P79384 29-539 partner)
T3 sequence (P0DTA4 53-730 partner): T2 sequence (P0DTA4 53-730)
In words: Elution of PCCB from ATP-Sepharose column loaded with porcine liver proteome, IC50 estimate. Format: binding. As to conditions: estimated from percent of protein eluted from ATP-Sepharose column, read-out: Approximate IC50 for PCCB. How it is done: as §2, §1, §3

The target of another assay is T4, DHFR (Homo sapiens, UniProt P00374).
T4 sequence (P00374 1-187): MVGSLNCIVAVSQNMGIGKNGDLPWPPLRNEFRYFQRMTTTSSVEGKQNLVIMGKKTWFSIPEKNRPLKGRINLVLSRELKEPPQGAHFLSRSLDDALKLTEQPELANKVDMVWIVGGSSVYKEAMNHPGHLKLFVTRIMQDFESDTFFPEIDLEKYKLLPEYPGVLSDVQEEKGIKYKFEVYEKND
Nature of the assay: DHFR enzymatic assay. The class given is biochemical. As to conditions: determined by enzymatic assay.

For the next assay, the target named is Her2 (Homo sapiens, UniProt P04626). Nature of the assay: Elution of Her2 from ATP-Sepharose column by compound (Proteome Mining), IC50 estimate. Format: binding. As to conditions: estimated from percent of protein eluted from ATP-Sepharose column, gel densitometry; read-out: Approximate IC50 for Her2. As for the experimental part:
as §1, with “A proteome containing a known quantity of Her2, EGFR, and B-Raf was run over an ATP-Sepharose™ column in order to bind all purine-binding proteins. […] The ATP-Sepharose™ was washed several times, and then eluted with the compound of Formula III. The experiment was run in duplicate at concentrations of 20 μM, 100 μM, and 500 μM of the compound of Formula III. The eluted fractions were run on a 1-dimensional SDS polyacrylamide gel. Gels” for “Gels”

The target in the next assay is EGFR (Homo sapiens, UniProt P00533). Nature of the assay: Elution of EGFR from ATP-Sepharose column by compound (Proteome Mining), IC50 estimate. The class given is binding. The following applies: estimated from percent of protein eluted from ATP-Sepharose column, gel densitometry; read-out: Approximate IC50 for EGFR. As for the experimental part:
(§4) A proteome containing a known quantity of Her2, EGFR, and B-Raf was run over an ATP-Sepharose™ column in order to bind all purine-binding proteins. See, WO 00/63694 and U.S. Provisional Application No. 60/453,697 filed Jan. 22, 2003, each of which is incorporated by reference in its entirety. The ATP-Sepharose™ was washed several times, and then eluted with the compound of Formula III. The experiment was run in duplicate at concentrations of 20 μM, 100 μM, and 500 μM of the compound of Formula III. The eluted fractions were run on a 1-dimensional SDS polyacrylamide gel. Gels were stained with a fluorescent stain such as sypro ruby (a highly sensitive fluorescent protein stain that can readily detect less than 1 fmol of total protein, i.e., less than 0.04 ng for a 40 kDa protein). The gels were imaged using a standard flat bed gel imager and the amount of protein estimated by densiometry. The percent of protein eluted from the column at each concentration was determined and IC50 values were calculated from these estimates. Where necessary, the eluted proteins were cut out of the gel, and identified using mass spectral techniques.
(§5) These steps were repeated with each of the compounds of Formulas IV-X, MTX, and the c series derivative.

For the next assay, the target named is B-Raf (Homo sapiens, UniProt P15056). Nature of the assay: Elution of B-Raf from ATP-Sepharose column by compound (Proteome Mining), IC50 estimate. Format: binding. The following applies: estimated from percent of protein eluted from ATP-Sepharose column, gel densitometry; read-out: Approximate IC50 for B-Raf. As for the experimental part: as §4, §5

pIC50: −log10 of the molar value.

Sequence of EGFR (P00533 25-1210, species assumed): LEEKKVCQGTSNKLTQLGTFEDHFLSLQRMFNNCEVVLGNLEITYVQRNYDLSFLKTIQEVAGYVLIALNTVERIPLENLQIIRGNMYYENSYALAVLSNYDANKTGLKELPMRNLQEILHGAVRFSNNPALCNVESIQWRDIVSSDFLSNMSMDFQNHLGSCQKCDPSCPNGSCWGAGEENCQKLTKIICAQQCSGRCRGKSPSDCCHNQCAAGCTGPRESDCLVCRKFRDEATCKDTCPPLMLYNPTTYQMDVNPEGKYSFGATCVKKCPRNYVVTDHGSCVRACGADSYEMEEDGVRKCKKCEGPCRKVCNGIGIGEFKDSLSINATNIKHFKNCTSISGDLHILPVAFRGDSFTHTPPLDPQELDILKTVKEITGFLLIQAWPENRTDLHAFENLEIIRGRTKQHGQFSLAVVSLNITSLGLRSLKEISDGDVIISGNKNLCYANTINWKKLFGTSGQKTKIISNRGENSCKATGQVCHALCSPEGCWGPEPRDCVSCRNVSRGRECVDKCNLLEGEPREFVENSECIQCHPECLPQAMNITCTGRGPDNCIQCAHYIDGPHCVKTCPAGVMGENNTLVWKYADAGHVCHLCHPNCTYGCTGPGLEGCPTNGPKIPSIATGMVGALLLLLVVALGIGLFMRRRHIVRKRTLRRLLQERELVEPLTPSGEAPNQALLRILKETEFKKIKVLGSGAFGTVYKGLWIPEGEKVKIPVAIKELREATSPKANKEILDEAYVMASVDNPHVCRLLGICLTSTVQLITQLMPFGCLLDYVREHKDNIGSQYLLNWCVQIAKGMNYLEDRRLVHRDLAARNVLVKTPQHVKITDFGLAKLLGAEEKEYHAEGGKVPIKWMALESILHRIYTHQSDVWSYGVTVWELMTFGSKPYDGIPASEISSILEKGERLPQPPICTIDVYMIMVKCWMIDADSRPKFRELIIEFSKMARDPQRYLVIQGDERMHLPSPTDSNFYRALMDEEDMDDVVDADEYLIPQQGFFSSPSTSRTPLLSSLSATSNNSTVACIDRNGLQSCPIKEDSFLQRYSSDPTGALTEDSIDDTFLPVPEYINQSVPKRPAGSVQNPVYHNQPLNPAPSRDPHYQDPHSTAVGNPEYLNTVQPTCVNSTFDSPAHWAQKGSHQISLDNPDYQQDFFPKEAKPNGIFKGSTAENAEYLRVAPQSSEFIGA
Sequence of B-Raf (P15056 whole entry, species assumed): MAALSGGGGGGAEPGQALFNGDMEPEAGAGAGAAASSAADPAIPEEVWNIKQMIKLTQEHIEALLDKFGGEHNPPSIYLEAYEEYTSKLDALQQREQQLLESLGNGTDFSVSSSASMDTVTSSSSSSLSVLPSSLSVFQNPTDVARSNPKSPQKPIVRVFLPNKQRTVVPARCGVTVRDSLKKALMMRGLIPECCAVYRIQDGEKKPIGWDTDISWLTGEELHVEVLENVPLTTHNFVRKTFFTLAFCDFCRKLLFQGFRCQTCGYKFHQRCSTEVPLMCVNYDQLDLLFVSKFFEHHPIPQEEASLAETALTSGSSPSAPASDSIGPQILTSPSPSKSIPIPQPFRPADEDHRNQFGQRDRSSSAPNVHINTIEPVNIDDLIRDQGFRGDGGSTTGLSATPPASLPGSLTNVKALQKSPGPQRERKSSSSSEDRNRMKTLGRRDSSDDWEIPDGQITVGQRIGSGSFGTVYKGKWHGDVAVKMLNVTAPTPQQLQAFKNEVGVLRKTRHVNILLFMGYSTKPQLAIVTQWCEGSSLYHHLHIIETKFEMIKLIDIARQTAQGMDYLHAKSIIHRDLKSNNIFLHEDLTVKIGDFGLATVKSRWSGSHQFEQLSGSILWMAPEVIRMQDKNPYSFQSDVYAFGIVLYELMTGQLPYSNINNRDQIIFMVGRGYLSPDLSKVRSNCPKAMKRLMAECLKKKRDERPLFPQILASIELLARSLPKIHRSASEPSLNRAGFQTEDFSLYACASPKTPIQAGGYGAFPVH
Sequence of Her2 (P04626 23-1255, species assumed): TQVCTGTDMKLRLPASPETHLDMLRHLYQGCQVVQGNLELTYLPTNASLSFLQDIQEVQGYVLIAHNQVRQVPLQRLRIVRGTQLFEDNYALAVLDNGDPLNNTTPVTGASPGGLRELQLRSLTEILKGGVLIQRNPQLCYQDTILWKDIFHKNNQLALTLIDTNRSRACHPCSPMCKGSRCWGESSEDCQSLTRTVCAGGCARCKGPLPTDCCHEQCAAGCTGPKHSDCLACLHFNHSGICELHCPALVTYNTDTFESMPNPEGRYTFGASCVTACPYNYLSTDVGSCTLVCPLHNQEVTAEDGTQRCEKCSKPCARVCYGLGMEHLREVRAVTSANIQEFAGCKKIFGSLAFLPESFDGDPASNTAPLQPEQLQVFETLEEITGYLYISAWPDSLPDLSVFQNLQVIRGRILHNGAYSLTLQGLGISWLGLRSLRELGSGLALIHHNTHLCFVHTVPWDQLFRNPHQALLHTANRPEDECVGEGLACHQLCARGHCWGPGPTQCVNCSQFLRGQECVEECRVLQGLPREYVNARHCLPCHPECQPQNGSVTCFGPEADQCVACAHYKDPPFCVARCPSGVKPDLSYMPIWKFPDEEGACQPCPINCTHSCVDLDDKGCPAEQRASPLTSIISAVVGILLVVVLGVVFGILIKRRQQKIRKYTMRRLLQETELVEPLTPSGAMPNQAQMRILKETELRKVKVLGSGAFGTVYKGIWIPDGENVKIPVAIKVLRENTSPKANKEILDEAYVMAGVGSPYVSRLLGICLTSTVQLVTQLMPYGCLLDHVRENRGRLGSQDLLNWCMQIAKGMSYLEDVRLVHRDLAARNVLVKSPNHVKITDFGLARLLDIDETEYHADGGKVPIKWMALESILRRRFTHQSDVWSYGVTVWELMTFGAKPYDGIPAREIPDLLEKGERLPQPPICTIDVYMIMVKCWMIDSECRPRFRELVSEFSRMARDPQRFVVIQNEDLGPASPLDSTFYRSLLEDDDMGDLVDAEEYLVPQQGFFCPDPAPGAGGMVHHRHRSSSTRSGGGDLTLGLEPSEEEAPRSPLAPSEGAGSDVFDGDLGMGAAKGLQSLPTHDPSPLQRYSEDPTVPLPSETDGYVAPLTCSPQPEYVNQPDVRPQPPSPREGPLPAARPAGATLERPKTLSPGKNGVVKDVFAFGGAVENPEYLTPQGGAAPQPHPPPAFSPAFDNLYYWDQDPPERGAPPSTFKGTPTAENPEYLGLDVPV

By pIC50 is commonly meant the IC50 on a negative log10 scale, so that one unit is a factor of ten. For the compound `Cc1cc(C(=O)NC(CCC(=O)O)C(=O)O)ccc1N(Cc1cnc2nc(N)nc(N)c2n1)CC(C)(C)C` (stereo not drawn) [Formula IV], the pIC50 in assay [1] is 5.30; in assay [2] it was 5.22; in assay [3], 5.00; at DHFR it was 7.77.

In the case of `CC(C)=CCN(Cc1cnc2nc(N)nc(N)c2n1)c1ccc(C(=O)NC(CCC(=O)O)C(=O)O)cc1C` (stereo not drawn) [Formula VI], the figures for the negative logarithm of the IC50 (pIC50) in assay [1], in assay [2] and in assay [3] were 6.30, 6.00 and 6.00, respectively.

On to `Cc1cc(C(=O)NC(CCC(=O)O)C(=O)O)ccc1N(Cc1cnc2nc(N)nc(N)c2n1)CC1CC1` (stereo not drawn) [Formula V], for which the pIC50 on Her2 is 5.30; in assay [1], 5.40; in assay [2] it was 5.70; in assay [3], 5.46.

Consider `CC(C)(C)CN(Cc1cnc2nc(N)nc(N)c2n1)c1ccc(C(=O)NC(CCC(=O)O)C(=O)O)cc1` (stereo not drawn) [Formula X], for which the negative-log IC50 (pIC50) is 5.36 in assay [1], 5.60 in assay [2], 5.40 in assay [3] and 7.80 at DHFR.

Consider `CN(Cc1cnc2nc(N)nc(N)c2n1)c1ccc(C(=O)N[C@@H](CCC(=O)O)C(=O)O)cc1` [MTX, N-[4-[[(2,4-diamino-6-pteridinyl)methyl]methylamino]benzoyl]-L-glutamic acid, reference compound], for which the pIC50 at EGFR was < 4.82; on B-Raf, ≤ 5.00; in assay [1] it was 6.46.
